Laboratory results: the NIST ThermoML archive (doi:10.1021/acs.jced.8b01097)

Assay: xn = mol fraction of the nth substance listed
Details: 85 kPa, Liquid; for viscosity: Concentric cylinders viscometry; for mass density: Vibrating tube method

CCC(C)O (centres undefined) [butan-2-ol] + CCCO
Details	mass density [kg/m3]	viscosity [mPa·s]
293.15 K, x1 = 0.0818	804.1	2.323
293.15 K, x1 = 0.1601	804.6	2.428
293.15 K, x1 = 0.2399	805	2.54
293.15 K, x1 = 0.3499	805.5	2.702
293.15 K, x1 = 0.4399	805.8	2.838
293.15 K, x1 = 0.56	806	3.023
293.15 K, x1 = 0.6515	806.1	3.166
293.15 K, x1 = 0.7385	806.2	3.304
293.15 K, x1 = 0.85	806.3	3.486
293.15 K, x1 = 0.9407	806.3	3.639
293.15 K, x1 = 1	806.2	3.743
298.15 K, x1 = 0.0818	800.1	2.047
298.15 K, x1 = 0.1601	800.6	2.126
298.15 K, x1 = 0.2399	801	2.211
298.15 K, x1 = 0.3499	801.5	2.331
298.15 K, x1 = 0.4399	801.8	2.432
298.15 K, x1 = 0.56	802	2.57
298.15 K, x1 = 0.6515	802.1	2.676
298.15 K, x1 = 0.7385	802.2	2.778
298.15 K, x1 = 0.85	802.2	2.913
298.15 K, x1 = 0.9407	802.1	3.025
298.15 K, x1 = 1	802	3.101
303.15 K, x1 = 0.0818	796.1	1.824
303.15 K, x1 = 0.1601	796.7	1.893
303.15 K, x1 = 0.2399	797.1	1.962
303.15 K, x1 = 0.3499	797.6	2.057
303.15 K, x1 = 0.4399	797.9	2.134
303.15 K, x1 = 0.56	798.1	2.228
303.15 K, x1 = 0.6515	798.2	2.31
303.15 K, x1 = 0.7385	798.2	2.38
303.15 K, x1 = 0.85	798.2	2.466
303.15 K, x1 = 0.9407	798.1	2.536
303.15 K, x1 = 1	797.9	2.579
308.15 K, x1 = 0.0818	792.1	1.619
308.15 K, x1 = 0.1601	792.7	1.672
308.15 K, x1 = 0.2399	793.1	1.724
308.15 K, x1 = 0.3499	793.6	1.795
308.15 K, x1 = 0.4399	793.8	1.851
308.15 K, x1 = 0.56	794	1.925
308.15 K, x1 = 0.6515	794.1	1.98
308.15 K, x1 = 0.7385	794.1	2.03
308.15 K, x1 = 0.85	794	2.089
308.15 K, x1 = 0.9407	793.8	2.135
308.15 K, x1 = 1	793.6	2.162
313.15 K, x1 = 0.0818	788.1	1.444
313.15 K, x1 = 0.1601	788.7	1.485
313.15 K, x1 = 0.2399	789.1	1.525
313.15 K, x1 = 0.3499	789.6	1.58
313.15 K, x1 = 0.4399	789.8	1.622
313.15 K, x1 = 0.56	789.9	1.676
313.15 K, x1 = 0.6515	789.9	1.713
313.15 K, x1 = 0.7385	789.8	1.747
313.15 K, x1 = 0.85	789.7	1.786
313.15 K, x1 = 0.9407	789.5	1.814
313.15 K, x1 = 1	789.2	1.828
318.15 K, x1 = 0.0818	784	1.293
318.15 K, x1 = 0.1601	784.6	1.326
318.15 K, x1 = 0.2399	785.1	1.358
318.15 K, x1 = 0.3499	785.5	1.398
318.15 K, x1 = 0.4399	785.7	1.429
318.15 K, x1 = 0.56	785.8	1.467
318.15 K, x1 = 0.6515	785.7	1.493
318.15 K, x1 = 0.7385	785.6	1.516
318.15 K, x1 = 0.85	785.3	1.54
318.15 K, x1 = 0.9407	785.1	1.555
318.15 K, x1 = 1	784.7	1.559
323.15 K, x1 = 0.0818	779.9	1.16
323.15 K, x1 = 0.1601	780.5	1.185
323.15 K, x1 = 0.2399	781	1.209
323.15 K, x1 = 0.3499	781.4	1.24
323.15 K, x1 = 0.4399	781.5	1.263
323.15 K, x1 = 0.56	781.5	1.29
323.15 K, x1 = 0.6515	781.4	1.308
323.15 K, x1 = 0.7385	781.3	1.322
323.15 K, x1 = 0.85	781	1.336
323.15 K, x1 = 0.9407	780.6	1.341
323.15 K, x1 = 1	780.2	1.318
